Legend:
4T1 mammary tumors = assay: Ex vivo fluorescence imaging of tumor and organs after IV Alexa546-peptides; type: in vivo; details: 24 hours after IV, three mice
Protocol: The murine 4T1 xenograft model, which closely mimics stage IV of human breast cancer, was used in our study. Small 4T1 tumor (tumor volume <150 mm^3) generates a significant level of lactate and serves as a good model of an aggressive, acidic tumor[35]. All peptides were covalently conjugated with Alexa546-malemide. […] The mean fluorescence of tumor, muscle, kidney, liver and lungs were recorded and analyzed (Fig. 6).
All animal studies were conducted according to the animal protocol AN04-12-011 approved by the Institutional Animal Care and Use Committee at the University of Rhode Island, in compliance with the principles and procedures outlined by NIH for the Care and Use of Animals. 4T1 breast tumors were established by subcutaneous injection of 4T1 cells (8 × 10^5 cells/0.1 mL/flank) in the right flank of adult female BALB/c mice (about 19–22 g weight) obtained from Harlan Laboratories. When tumors reached about 6 mm in diameter single tail vein injections of 100 μl of 40 μM Alexa546-peptides were performed. […] Mean fluorescence intensity of tumor and organs was calculated using Kodak software.

[1] = type: physicochemical; details: pH 8
Protocol: (§1) Large unilamellar vesicles (LUVs) were prepared by extrusion. POPC, 1-palmitoyl-2-oleoyl-sn-glycero-3-phosphocholine (Avanti Polar Lipids), or a mixture of POPC with 0.5% of 18:1 NBD-PE, 1,2-dioleoyl-sn-glycero-3-phosphoethanolamine-N-7-nitro-2-1,3-benzoxadiazol-4-yl ammonium salt (Avanti Polar Lipids) were dissolved in chloroform, desolvated on a rotary evaporator, and dried under high vacuum for several hours. The phospholipid film was then rehydrated in 10 mM phosphate buffer pH 8.0, vortexed until the lipid bilayer was completely dissolved, and repeatedly (15–21 times) extruded through the membranes with 50 nm pore sizes to obtain LUVs.
pH-dependent partitioning of the peptides into a lipid bilayer of the membrane was investigated by the shift of the position of the fluorescence spectral maximum for the peptides in the presence POPC liposomes induced by a drop of pH from 8 to 2.5 by the addition of HCl. The peptides were incubated overnight with 50-nm POPC liposomes (final concentration of the peptides and POPC in solution was 5 μM and 1 mM, respectively), and pH decrease was achieved by the addition of aliquots of 4, 2, 1 and 0.1 M HCl. pH was measured by micro-electrode probe (Thermo Electron Corporation, Orion Ross Micro pH electrode). Fluorescence spectra were recorded at each pH value. The spectra were analyzed by the decomposition algorithms using on-line PFAST toolkit[47] (Protein Fluorescence and Structural Toolkit: http://pfast.phys.uri.edu/) to establish the position of the emission maximum. Finally, the positions of the fluorescence spectral maxima (λmax) were plotted versus pH, and the Henderson–Hasselbalch equation was used to fit the data (using Origin 8.5 software): […]
where [drawing 3] and [drawing 4] are the beginning and the end of the transition, respectively, and pKa – is the midpoint of the transition.

[2] = Lipid titration, peptide-membrane partition model, Gibbs free energy; type: physicochemical; details: 5 μM peptide, varying 50 nm POPC liposomes
Protocol: Samples containing 5 μM of peptides at pH 8 and pH 3, and varying concentrations of lipids of the 50 nm POPC liposomes were prepared. The fluorescence spectra of peptides in all samples were measured at 280 nm excitation at 25 °C. A series of POPC blanks with the same concentrations of lipids were measured with the same instrument settings and were subtracted from the corresponding fluorescence spectra of peptides in the presence of POPC. The areas under the emission spectra were calculated and the values were normalized to the first point (the emission of the peptide in the absence of POPC). The titration data were fitted by the peptide-membrane partition model to calculate the mole-fraction partition coefficient, K
where F0 is the fluorescence intensity at zero concentration of lipids (in our case F0 = 1); ΔF if the fluorescence increase in the result of the titration with lipids; Clipids is the concentration of lipids; W is the molar concentration of water (55.3 M). Nonlinear least squares curve fitting procedure using Levenberg-Marquardt algorithm was implemented in Origin 8.5.0 SR1. The Gibbs free energy (ΔG) was calculated according to the equation: […]
where R is the gas constant and T is the temperature in Kelvin.

[3] = Steady-state tryptophan fluorescence and CD with and without POPC liposomes; type: physicochemical
Protocol: as §1
Freshly prepared peptides and POPC vesicles were mixed to have 5 μM of a peptide and 1.25 mM of lipids in the final solution. Steady-state fluorescence measurements were carried out on a PC1 spectrofluorometer (ISS, Inc.) under temperature control at 25 °C. Tryptophan fluorescence was excited at 280 nm (there is no Phe or Tyr in the peptides) and recorded with the excitation and emission slits set at 1 nm. The polarizers in the excitation and emission paths were set at the “magic” angle (54.7° from the vertical orientation) and vertically (0°), respectively. Steady state CD measurements were carried out in MOS 450 spectropolarimeter (Bio-Logic, Inc.) with the same concentrations of peptide and lipids used in fluorescence measurements.

SMILES: O=C(O)CC[C@@H]1NC(=O)[C@H](CS)NC(=O)[C@H](Cc2c[nH]c3ccccc23)NC(=O)[C@H](Cc2c[nH]c3ccccc23)NC(=O)[C@H](Cc2c[nH]c3ccccc23)NC(=O)[C@H](Cc2c[nH]c3ccccc23)NC(=O)[C@H](Cc2c[nH]c3ccccc23)NC(=O)[C@H](CCC(=O)O)NC(=O)[C@H](CCC(=O)O)NC(=O)[C@H](CCC(=O)O)NC1=O [c[E4W5C]]
- Tumor/Muscle ratio (4T1 mammary tumors): 5.6
- apparent pK (pKa) of peptide's partitioning into the bilayer [1]: 5.7
- additional free energy released at low pH ([2]; pH 3 versus pH 8, 25 °C): about 0.7 kcal/mol
- free energy released on partitioning into the lipid bilayer at pH 8 ([2]; pH 8, 25 °C, partition model): About 7.3 kcal/mol
- maximum position of the fluorescence spectrum λmax, Pep, pH8 ([3]; peptide in phosphate buffer pH 8, no liposomes, 5 μM peptide, excitation 280 nm, 25 °C): 350.6±0.2 nm
- maximum position of the fluorescence spectrum λmax, Pep-PC, pH3 ([3]; with POPC liposomes pH 3, 5 μM peptide, 1.25 mM lipids, excitation 280 nm, 25 °C): 340.2±0.4 nm
- S, normalized area under the spectra, Pep-PC, pH3 ([3]; with POPC liposomes pH 3, normalized on area for peptide at pH 8 in absence of POPC): 2.4±0.5
- maximum position of the fluorescence spectrum λmax, Pep-PC, pH8 ([3]; with POPC liposomes pH 8, 5 μM peptide, 1.25 mM lipids, excitation 280 nm, 25 °C): 342.8±0.4 nm
- S, normalized area under the spectra, Pep-PC, pH8 ([3]; with POPC liposomes pH 8, normalized on area for peptide at pH 8 in absence of POPC): 2.4±0.3

Source: article PMC4981864, “Novel pH-Sensitive Cyclic Peptides” (Scientific Reports, 2016)
